# System: matching cell lines
# Experiment: not given
# Details: cited from earlier work
row,SMILES,MGMT level up to which protection towards the agent is proportional to MGMT activity
1,"CS(=O)(=O)NN(CCCl)S(C)(=O)=O [90CE, 1,2-bis(methylsulfonyl)-1-(2-chloroethyl)hydrazine]","~ 10,000 MGMT molecules/cell"

# Same assay, conditions: same matching cell lines with/without MGMT expression; cited from earlier work
row,SMILES,increase in the IC50 value resulting from MGMT expression
1,"CS(=O)(=O)NN(CCCl)S(C)(=O)=O [90CE, 1,2-bis(methylsulfonyl)-1-(2-chloroethyl)hydrazine]",~ 20 fold
2,"O=NN(CCCl)C(=O)NCCCl [bis-chloroethylnitrosourea (BCNU), bis-chloroethylnitrosourea]",2 to 3 fold

# System: not listed separately
# Experiment: Linker half-life determination by spectrophotometric proton release assay (spontaneous hydrolysis)
# Format: physicochemical
# Details: buffer; 37 °C, pH 7.4; low molecular weight 90CE prodrugs with different N-2 substituents; read-out: Half-life (h) 37°C pH 7.4 (spontaneous hydrolysis) (converted)
# Procedure: Linker half-life determination. The hydrolytic half-lives of several proposed linker moieties were determined using the proton release assay. The results are given in (Figure 4), several possible linkers with suitably long half-live values (40–300 h) were identified.
# Decomposition kinetics. The kinetics of decomposition of various compounds and intermediates under various conditions can be followed using a spectrophotometric proton release assay. This is the preferred method for relatively short-lived agents as the decomposition can be followed in real time. This method is also suitable for following the decomposition of much longer-lived agents, as long as the reaction vessel/cuvette is sealed to prevent changes in pH due to CO2 absorption/desorption, and the temperature is closely controlled.
row,SMILES,half-life
1,CC(=O)N(N(CCCl)S(C)(=O)=O)S(C)(=O)=O [A],42.9 ± 2.1 h
2,COC(=O)N(N(CCCl)S(C)(=O)=O)S(C)(=O)=O [B],> 300 h
3,CNC(=O)N(N(CCCl)S(C)(=O)=O)S(C)(=O)=O [C],1.17 ± 0.02 h
4,CN(C)C(=O)N(N(CCCl)S(C)(=O)=O)S(C)(=O)=O [D],129 ± 9 h
5,CCN(CC)C(=O)N(N(CCCl)S(C)(=O)=O)S(C)(=O)=O [E],10.3 ± 0.3 h
6,CS(=O)(=O)N(CCCl)N(C(=O)N1CCCC1)S(C)(=O)=O [F],> 300 h
7,CC1CCC(C)N1C(=O)N(N(CCCl)S(C)(=O)=O)S(C)(=O)=O (stereo not shown) [G],> 300 h
8,CS(=O)(=O)N(CCCl)N(C(=O)N1CCCCC1)S(C)(=O)=O [H],16.2 ± 0.5 h
9,CS(=O)(=O)N(CCCl)N(C(=O)N1CCOCC1)S(C)(=O)=O [I],> 300 h

# System: O-6 position of DNA guanine
# Experiment: not given
# Parameters: method as in PMID 20654586
# Details: relative to chloroethylating counterpart 90CE; cited from earlier work
row,SMILES,molar yield of guanine O-6 alkylations relative to 90CE
1,"CN(NS(C)(=O)=O)S(C)(=O)=O [KS90, 1,2-bis(methylsulfonyl)-1-(methyl)hydrazine]",5–6 times

# — article PMC7825511, “Design Strategy for the EPR Tumor-Targeting of 1,2-Bis(sulfonyl)-1-alkylhydrazines” (Molecules, 2021)
